Data reported in patent US10280170B2, “Substituted 4,5,6,7-tetrahydro-pyrazolo[1,5-a]pyrazine derivatives and 5,6,7,8-tetrahydro-4H-pyrazolo[1,5-a][1,4]diazepine derivatives as Ros1 inhibitors” (Janssen Pharmaceutica NV, priority 2014, dated 2019).
Where two headings read alike, the source gives them in different places.

Tests used:
[1] = biological target: T1, Ba/F3 cells containing Ros1 wild-type protein (Homo sapiens, UniProt P08922, cells depend on it, form not given); test: Ba/F3-Ros1 cell proliferation assay, wild-type Ros1; assay type: cell-based, murine; conditions: without IL-3
T1 construct: The background only speaks of 'a number of different unrelated proteins' and names SLC34A2-ROS1 for HCC78 cells
T1 sequence (P08922 whole entry, stated change not applied): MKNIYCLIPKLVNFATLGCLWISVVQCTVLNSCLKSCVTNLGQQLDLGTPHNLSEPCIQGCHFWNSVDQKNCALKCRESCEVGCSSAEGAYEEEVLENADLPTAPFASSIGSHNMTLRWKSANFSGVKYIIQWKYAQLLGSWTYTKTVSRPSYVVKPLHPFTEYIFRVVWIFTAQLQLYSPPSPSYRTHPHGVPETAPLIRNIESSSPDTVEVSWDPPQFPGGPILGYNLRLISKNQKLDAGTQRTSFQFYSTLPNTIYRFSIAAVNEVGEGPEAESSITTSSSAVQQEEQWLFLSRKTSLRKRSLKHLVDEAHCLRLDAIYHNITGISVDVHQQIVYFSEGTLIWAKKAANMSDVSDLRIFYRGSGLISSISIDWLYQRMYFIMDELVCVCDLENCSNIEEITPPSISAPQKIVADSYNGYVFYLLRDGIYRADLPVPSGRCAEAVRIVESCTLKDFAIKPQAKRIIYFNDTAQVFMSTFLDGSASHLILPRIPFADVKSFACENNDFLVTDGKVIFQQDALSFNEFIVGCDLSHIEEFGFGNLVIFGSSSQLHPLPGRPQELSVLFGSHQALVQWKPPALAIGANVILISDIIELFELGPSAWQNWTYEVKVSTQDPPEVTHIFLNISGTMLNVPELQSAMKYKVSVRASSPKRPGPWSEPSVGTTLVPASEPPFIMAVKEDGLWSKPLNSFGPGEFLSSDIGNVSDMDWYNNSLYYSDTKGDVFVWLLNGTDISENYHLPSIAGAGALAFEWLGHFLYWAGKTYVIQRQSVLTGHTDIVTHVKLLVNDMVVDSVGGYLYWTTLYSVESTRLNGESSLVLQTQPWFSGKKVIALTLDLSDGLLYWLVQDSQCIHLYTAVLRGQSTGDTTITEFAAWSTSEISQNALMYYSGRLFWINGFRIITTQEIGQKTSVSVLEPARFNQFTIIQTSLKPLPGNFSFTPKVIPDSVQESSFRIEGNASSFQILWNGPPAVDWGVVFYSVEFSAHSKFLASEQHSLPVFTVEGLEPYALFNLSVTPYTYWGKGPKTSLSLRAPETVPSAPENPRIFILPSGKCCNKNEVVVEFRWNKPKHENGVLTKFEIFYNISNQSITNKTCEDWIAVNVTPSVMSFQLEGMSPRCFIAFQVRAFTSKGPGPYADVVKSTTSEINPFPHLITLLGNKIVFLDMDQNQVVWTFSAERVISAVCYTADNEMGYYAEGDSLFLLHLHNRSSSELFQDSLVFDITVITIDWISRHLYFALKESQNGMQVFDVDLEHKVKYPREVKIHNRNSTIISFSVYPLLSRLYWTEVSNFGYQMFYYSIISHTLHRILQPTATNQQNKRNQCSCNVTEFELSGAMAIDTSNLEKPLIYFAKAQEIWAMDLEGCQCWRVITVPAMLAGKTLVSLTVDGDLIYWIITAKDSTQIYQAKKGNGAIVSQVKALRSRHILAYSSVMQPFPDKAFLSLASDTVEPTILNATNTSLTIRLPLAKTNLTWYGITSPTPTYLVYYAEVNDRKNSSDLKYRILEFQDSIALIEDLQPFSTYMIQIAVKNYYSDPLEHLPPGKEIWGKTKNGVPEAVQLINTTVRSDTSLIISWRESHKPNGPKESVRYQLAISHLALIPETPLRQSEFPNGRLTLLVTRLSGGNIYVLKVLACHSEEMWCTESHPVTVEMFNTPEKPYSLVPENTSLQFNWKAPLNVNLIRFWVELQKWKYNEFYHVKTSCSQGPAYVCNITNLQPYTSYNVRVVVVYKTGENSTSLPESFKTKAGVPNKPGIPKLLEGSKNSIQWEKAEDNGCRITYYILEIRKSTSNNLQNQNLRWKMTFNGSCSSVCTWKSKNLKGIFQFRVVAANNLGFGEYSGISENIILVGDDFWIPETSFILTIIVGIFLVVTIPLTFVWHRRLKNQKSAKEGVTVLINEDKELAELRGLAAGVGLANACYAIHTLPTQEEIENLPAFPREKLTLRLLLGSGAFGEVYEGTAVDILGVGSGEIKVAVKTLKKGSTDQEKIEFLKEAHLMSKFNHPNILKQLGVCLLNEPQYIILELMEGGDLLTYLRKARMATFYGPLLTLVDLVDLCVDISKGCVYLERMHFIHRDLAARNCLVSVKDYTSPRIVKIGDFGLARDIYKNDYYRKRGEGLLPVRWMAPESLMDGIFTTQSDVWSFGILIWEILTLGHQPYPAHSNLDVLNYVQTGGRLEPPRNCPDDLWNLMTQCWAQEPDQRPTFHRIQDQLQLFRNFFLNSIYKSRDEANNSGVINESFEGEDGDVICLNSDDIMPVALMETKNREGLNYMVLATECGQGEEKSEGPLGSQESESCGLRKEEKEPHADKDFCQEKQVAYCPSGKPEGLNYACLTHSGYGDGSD
Method in brief: (§1)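 Alamar Blue read-out (resazurin, ex. 540 nm, em. 590 nm, 4 h at 37 °C) after 24 h compound exposure of 20000 Ba/F3-Ros1 cells per well. Cells carry WT, gatekeeper L2026M or crizotinib-resistant G2032R Ros1; medium RPMI-1640, 10% FBS, 2 mM L-Glutamine.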

Ros1 enzyme = biological target: T2, Ros1 enzyme (Homo sapiens, UniProt P08922); test: Ros1 enzymatic assay; assay type: biochemical; conditions: Ros1 enzymatic assay; for IC50: read-out: ROS1 pIC50 (converted)
T2 construct: 0.5 μg/ml Ros1 enzyme
T2 sequence (P08922 28-2347): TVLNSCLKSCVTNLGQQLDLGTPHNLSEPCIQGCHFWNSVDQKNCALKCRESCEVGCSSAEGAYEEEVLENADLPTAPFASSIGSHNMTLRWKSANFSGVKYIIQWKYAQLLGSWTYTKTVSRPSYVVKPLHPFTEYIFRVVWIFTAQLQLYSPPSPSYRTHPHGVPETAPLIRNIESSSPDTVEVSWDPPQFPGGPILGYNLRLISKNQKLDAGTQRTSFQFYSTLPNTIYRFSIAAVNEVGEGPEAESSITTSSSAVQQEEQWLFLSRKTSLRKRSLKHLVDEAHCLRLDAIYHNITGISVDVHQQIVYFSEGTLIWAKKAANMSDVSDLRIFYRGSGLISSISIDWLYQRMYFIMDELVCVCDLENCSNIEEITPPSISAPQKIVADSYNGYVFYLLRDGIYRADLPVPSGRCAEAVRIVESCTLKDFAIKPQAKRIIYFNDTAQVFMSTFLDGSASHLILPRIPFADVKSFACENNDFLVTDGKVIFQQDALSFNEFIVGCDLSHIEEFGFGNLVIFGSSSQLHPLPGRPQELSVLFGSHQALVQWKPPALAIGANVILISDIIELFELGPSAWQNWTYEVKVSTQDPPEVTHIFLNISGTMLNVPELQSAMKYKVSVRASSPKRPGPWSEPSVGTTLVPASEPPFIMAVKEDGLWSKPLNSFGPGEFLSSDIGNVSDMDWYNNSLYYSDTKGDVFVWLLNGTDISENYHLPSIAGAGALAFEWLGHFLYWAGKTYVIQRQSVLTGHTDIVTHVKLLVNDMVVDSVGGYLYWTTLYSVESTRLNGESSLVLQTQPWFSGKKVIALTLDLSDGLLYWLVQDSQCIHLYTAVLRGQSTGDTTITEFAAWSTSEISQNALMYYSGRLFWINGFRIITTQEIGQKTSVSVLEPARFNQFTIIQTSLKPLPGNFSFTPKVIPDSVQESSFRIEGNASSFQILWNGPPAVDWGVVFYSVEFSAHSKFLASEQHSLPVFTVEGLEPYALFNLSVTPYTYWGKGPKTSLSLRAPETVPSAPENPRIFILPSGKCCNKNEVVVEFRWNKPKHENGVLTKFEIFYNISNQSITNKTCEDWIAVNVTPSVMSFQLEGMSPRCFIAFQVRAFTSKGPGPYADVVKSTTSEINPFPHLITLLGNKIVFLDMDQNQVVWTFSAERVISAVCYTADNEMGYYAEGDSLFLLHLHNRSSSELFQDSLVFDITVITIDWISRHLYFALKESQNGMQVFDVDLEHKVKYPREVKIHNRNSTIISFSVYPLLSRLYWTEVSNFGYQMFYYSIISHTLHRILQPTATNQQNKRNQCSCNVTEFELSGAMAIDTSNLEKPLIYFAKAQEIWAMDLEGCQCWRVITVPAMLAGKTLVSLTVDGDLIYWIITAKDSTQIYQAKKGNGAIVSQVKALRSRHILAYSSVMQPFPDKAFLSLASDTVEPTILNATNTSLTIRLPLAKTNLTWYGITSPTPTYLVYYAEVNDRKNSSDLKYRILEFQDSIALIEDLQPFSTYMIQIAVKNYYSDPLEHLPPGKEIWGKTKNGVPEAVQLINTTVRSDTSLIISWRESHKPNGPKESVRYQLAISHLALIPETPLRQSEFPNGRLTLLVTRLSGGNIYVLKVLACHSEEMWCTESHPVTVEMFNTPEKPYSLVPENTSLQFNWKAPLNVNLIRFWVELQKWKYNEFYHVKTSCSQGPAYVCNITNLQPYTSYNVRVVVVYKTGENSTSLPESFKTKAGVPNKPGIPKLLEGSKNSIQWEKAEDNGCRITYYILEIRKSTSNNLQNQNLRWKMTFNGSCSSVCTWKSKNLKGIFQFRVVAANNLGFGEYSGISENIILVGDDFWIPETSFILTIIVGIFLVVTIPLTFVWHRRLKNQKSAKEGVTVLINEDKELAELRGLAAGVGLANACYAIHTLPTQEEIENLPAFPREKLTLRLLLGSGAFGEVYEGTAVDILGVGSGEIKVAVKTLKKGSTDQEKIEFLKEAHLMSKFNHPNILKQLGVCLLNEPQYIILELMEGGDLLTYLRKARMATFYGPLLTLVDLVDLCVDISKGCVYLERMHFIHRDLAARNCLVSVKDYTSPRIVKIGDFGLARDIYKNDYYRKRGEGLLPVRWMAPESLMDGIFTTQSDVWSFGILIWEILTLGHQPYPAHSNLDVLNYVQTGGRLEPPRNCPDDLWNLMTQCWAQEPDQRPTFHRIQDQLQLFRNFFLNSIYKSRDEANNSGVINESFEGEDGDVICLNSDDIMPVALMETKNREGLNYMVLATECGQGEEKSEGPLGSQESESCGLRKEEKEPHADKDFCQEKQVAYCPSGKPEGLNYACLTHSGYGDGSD
Method in brief: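 Ros1 (0.5 μg/ml in enzyme mix) was combined with a substrate mix of biotinylated IRS-Tide (6 μg/ml) and 20 μM ATP spiked with 33P-ATP in 50 mM Tris-HCl pH7.5, 10 mM MgCl2, 1 mM EGTA, 0.01% Tween-20. Reaction ran 120 min at room temperature before EDTA stop.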

[2] = tested on: Ba/F3 cells containing Ros1 wild-type protein + IL-3; test: Ba/F3-Ros1 cell proliferation counter-screen, wild-type protein in the presence of 10 ng/ml murine IL-3; assay type: cell-based; conditions: Mus musculus, BaF3, 24 h, read-out: BaF3-ROS1 + IL3 pIC50 (converted)
Method in brief: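 Ba/F3 cells expressing wild-type Ros1 were grown with 10 ng/ml murine IL-3 and test compound in RPMI-1640 with 10% FBS and 2 mM L-glutamine for 24 h at 37 °C, 5% CO2. Viability was then read as Alamar Blue (resazurin) fluorescence (ex 540/em 590 nm) after 4 h further incubation.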

[3] = tested on: HCC78 non-small cell lung cancer cells; test: HCC78 cell proliferation assay; assay type: cell-based; conditions: for EC50: Homo sapiens, HCC78, 96 h, read-out: HCC-78 PROL pEC50 (converted)
Description: HCC78 Cell Proliferation Assay
Approximately 1000 HCC78 non-small cell lung cancer cells in 180 μl of cell culture medium (RPMI-1640, 10% FBS, 2 mM L-Glutamine, 10 mM Hepes, 1 mM sodium pyruvate, 4.5 g/L glucose, 1.5 g/L sodium bicarbonate, 25 μg/ml Gentamycin) were seeded in each well of a 96-well polystyrene, tissue-culture treated plate and incubated at 37° C. and 5% CO2. After 24 hours, compounds were diluted in cell culture medium from which 20 μl was added to the wells containing cells and incubated for 4 days at 37° C. and 5% CO2. A 5 mg/ml solution of the tetrazolium dye MTT was prepared in PBS (phosphate-buffered saline) and 25 μl was added to each well. After 2 hours the medium was removed and replaced by 125 μL of 4/1 DMSO/glycine buffer (0.1M glycine, 0.1M NaCl, pH 10.5) before absorbance was determined at 538 nm.

[4] = biological target: Ba/F3 cells containing Ros1 with a mutation at the gatekeeper residue (L2026M) (Homo sapiens, UniProt P08922, L2026M, cells depend on it, form not given); test: Ba/F3-Ros1 cell proliferation assay, L2026M gatekeeper mutant; assay type: cell-based, murine; conditions: without IL-3
Ba/F3 cells containing Ros1 with a mutation at the gatekeeper residue (L2026M), sequence (P08922 whole entry L2026M, form open): as the sequence (P08922 whole entry, stated change not applied) above, with L2026M counted along it
Method in brief: as §1

[5] = counter-screen, wild-type, 10 ng/ml murine IL-3

SMILES	BaF3-ROS1-IL3 pIC50 [1]	melting point	EC50 ([3]; HCC78 cells, 4 days, MTT)	Ba/F3 Ros1 L2026M (-IL-3) pIC50 [4]	HCC-78 PROL pEC50 ([3]; HCC78 cells, 4 days, MTT)	ROS1 pIC50 (Ros1 enzyme)	IC50 (Ros1 enzyme)	CC50 [2, 5]	CC50 [2]	EC50 [3]
CC(C)c1ccc(COc2ccc(-c3c(-c4ccncc4)nn4c3C(=O)N(C(C)CO)CC4)cc2)cc1 (single isomer, unassigned) [Compound 38]	7.9	144 °C	–	7.5	7.3	–	12.6 nM	–	–	–
CC(C)c1ccc(COc2ccc(-c3c(-c4ccncc4)nn4c3C(=O)NCC4)cc2)cc1CCO [Compound 11]	7.7	195 °C	–	7.8	–	–	10 nM	–	> 10000 nM	31.6 nM
CC(C)c1ccc(COc2ccc(-c3c(-c4ccncc4)nn4c3C(=O)NCC4)c(F)c2F)cc1 [Compound 16]	7.4	214 °C	–	7.1	–	–	100 nM	–	> 10000 nM	398 nM
CC(C)c1ccc(COc2ccc(-c3c(-c4ccncc4)nn4c3C(=O)N(CCO)CC4)c(F)c2F)cc1 [Compound 20]	6.9	138 °C	–	7.0	–	–	100 nM	–	> 10000 nM	1580 nM
CC(C)c1ccc(COc2ccc(-c3c(-c4ccncc4)nn4c3C(=O)N(CC(O)CO)CC4)c(F)c2)cc1 (centres unmarked) [Compound 22]	7.8	188 °C	–	7.4	7.7	7.9	–	–	–	–
CC(C)c1ccc(COc2ccc(-c3c(-c4ccncc4)nn4c3C(=O)N(CC(O)CO)CC4)c(F)c2)cc1 (centres unmarked) [Compound 23]	7.7	192 °C	–	7.2	7.2	–	12.6 nM	> 10000 nM	–	–
CC(C)c1ccc(COc2ccc(-c3c(-c4ccncc4)nn4c3C(=O)NCC4)c(Cl)c2)cc1 [Compound 24]	7.8	267 °C	–	8.2	–	–	7.94 nM	–	> 10000 nM	1.58 nM
CC(C)c1ccc(COc2ccc(-c3c(-c4ccncc4)nn4c3C(=O)NCC4)cc2Cl)cc1 [Compound 25]	6.8	251 °C	–	6.5	–	–	126 nM	–	> 10000 nM	501 nM
CC(C)c1ccc(COc2ccc(-c3c(-c4ccncc4)nn4c3C(=O)NCC4)c(C#N)c2)cc1 [Compound 27]	7.7	268 °C	–	7.1	–	–	15.8 nM	–	> 10000 nM	20 nM
Cc1cc(-c2c(-c3ccncc3)nn3c2C(=O)NCC3)cc(C)c1OCc1ccc(C(C)C)cc1 [Compound 29]	<5	260 °C	–	<5	–	–	> 10000 nM	–	> 10000 nM	> 10000 nM
Cc1cc(-c2c(-c3ccncc3)nn3c2C(=O)N(CCO)CC3)cc(C)c1OCc1ccc(C(C)C)cc1 [Compound 30]	<5	170 °C	–	<5	–	–	> 10000 nM	–	> 10000 nM	> 10000 nM
COc1cc(-c2c(-c3ccncc3)nn3c2C(=O)NCC3)cc(OC)c1OCc1ccc(C(C)C)cc1 [Compound 35]	5.7	192 °C	–	5.8	–	–	5010 nM	–	> 10000 nM	> 10000 nM
CC(C)c1ccc(COc2ccc(-c3c(-c4ccncc4)nn4c3C(=O)N(CC(O)CO)CC4)cc2)cc1 (centres unmarked) [Compound 41]	7.4	191 °C	–	6.6	7.1	–	31.6 nM	–	–	–
CC(C)c1cc(F)c(COc2ccc(-c3c(-c4ccncc4)nn4c3C(=O)N(CC(O)CO)CC4)cc2)c(F)c1 (centres unmarked) [Compound 95]	6.8	227 °C	–	–	6.4	–	158 nM	> 10000 nM	–	–
CC(C)c1cc(F)c(COc2ccc(-c3c(-c4ccncc4)nn4c3C(=O)N(CC(O)CO)CC4)cc2)c(F)c1 (centres unmarked) [Compound 96]	6.9	228 °C	–	6.6	5.9	6.8	–	–	–	–
CC(C)c1cc(F)c(COc2ccc(-c3c(-c4ccncc4)nn4c3C(=O)N(CC(O)CO)CC4)cc2)cc1F (centres unmarked) [Compound 99]	6.6	183 °C	–	6.0	5.7	–	501 nM	–	–	–
CNC(=O)CN1CCn2nc(-c3ccncc3)c(-c3ccc(OCc4ccc(C(C)C)cc4)cc3F)c2C1 [Compound 209]	7.5	–	–	7.5	–	–	63.1 nM	–	5010 nM	501 nM
C[Si](C)(C)c1ccc(COc2ccc(-c3c(-c4ccncc4)nn4c3C(=O)NCC4)cc2)cc1 [Compound 232]	6.7	–	2510 nM	6.5	–	–	2000 nM	> 10000 nM	–	–
CNCCc1cc(COc2ccc(-c3c(-c4ccncc4)nn4c3C(=O)NCC4)cc2)ccc1C(C)C [Compound 234]	7.1	–	–	6.7	–	–	20 nM	–	> 10000 nM	126 nM

Continued, in another order:

BaF3-ROS1-IL3 pIC50 [1]	melting point	EC50 ([3]; HCC78 cells, 4 days, MTT)	Ba/F3 Ros1 L2026M (-IL-3) pIC50 [4]	HCC-78 PROL pEC50 ([3]; HCC78 cells, 4 days, MTT)	ROS1 pIC50 (Ros1 enzyme)	SMILES	IC50 (Ros1 enzyme)	CC50 [2, 5]	CC50 [2]	EC50 [3]
7.1	252 °C	501 nM	6.8	–	–	CC(C)c1ccc(C2CNc3cc(-c4c(-c5ccncc5)nn5c4C(=O)NCC5)ccc3O2)cc1 (racemic) [Compound 226]	631 nM	> 10000 nM	–	–
6.3	233 °C	1000 nM	5.9	–	–	CC(C)(CN)c1ccc(COc2ccc(-c3c(-c4ccncc4)nn4c3C(=O)NCC4)cc2)cc1 [Compound 121]	–	> 10000 nM	–	–
7.3	197 °C	–	7.0	6.5	–	CC(O)CN1CCn2nc(-c3ccncc3)c(-c3ccc(OCc4ccc(C5CC5)cc4)cc3)c2C1=O (centres unmarked) [Compound 135]	158 nM	–	–	–
6.9	151 °C	–	6.9	6.2	6.8	CC(O)CN1CCn2nc(-c3ccncc3)c(-c3ccc(OCc4ccc(C(C)C)cc4)cc3)c2C1 (centres unmarked) [Compound 192]	–	–	–	–
6.8	–	398 nM	6.3	–	–	O=C1c2c(-c3ccc(OCc4ccc(C5CC5)nc4)cc3F)c(-c3ccncc3)nn2CCN1CC(O)CO (centres unmarked) [Compound 208]	63.1 nM	> 10000 nM	–	–
6.3	–	3160 nM	6.0	–	–	CNC(=O)C(Oc1ccc(-c2c(-c3ccncc3)nn3c2C(=O)NCC3)cc1)c1ccc(C(C)C)cc1 (centres unmarked) [Compound 217]	398 nM	> 10000 nM	–	–
6.7	–	316 nM	6.5	–	–	CNCCc1cc(COc2ccc(-c3c(-c4ccncc4)nn4c3C(=O)N(CCO)CC4)cc2)ccc1C(C)C [Compound 235]	25.1 nM	> 10000 nM	–	–
7.6	–	126 nM	7.4	–	–	CNCCc1cc(COc2ccc(-c3c(-c4ccncc4)nn4c3C(=O)N(C)CC4)cc2)ccc1C(C)C [Compound 236]	15.8 nM	3980 nM	–	–
